Reference: ChEMBL document CHEMBL3044957, “Synthesis and biological evaluation of some N 4-aryl-substituted 5-fluoroisatin-3-thiosemicarbazones” (Med Chem Res, 2013)
Activity calls are given as the source filed them. The calls are words filed in the database; no cut-off is given here.

How the values were obtained:
[1] = test system: Microsporum canis; assay: Growth inhibition of Arthroderma otae at 200 ug/ml after 7 days; assay type: functional; conditions: 168 h
[2] = test system: Fusarium solani; assay: Growth inhibition of Fusarium solani at 200 ug/ml after 7 days; assay type: functional; conditions: 168 h
[3] = test system: Nakaseomyces glabratus; assay: Growth inhibition of Candida glabrata at 200 ug/ml after 7 days; assay type: functional; conditions: 168 h
[4] = target: Urease (Canavalia ensiformis) (UniProt P07374); assay: Inhibition of Canavalia ensiformis (jack bean) urease assessed as inhibition of ammonia production at 200 uM after 15 min by indophenol method
[5] = Toxicity against Artemia salina (brine shrimp) assessed as mortality after 24 hr; assay type: organism-based; conditions: in vivo, read-out: LD50
[6] = test system: Candida albicans; assay: Growth inhibition of Candida albicans at 200 ug/ml after 7 days; assay type: functional; conditions: 168 h
[7] = test system: Trichophyton longifusum; assay: Growth inhibition of Trichophyton longifusum at 200 ug/ml after 7 days; assay type: functional; conditions: 168 h
[8] = test system: Lemna aequinoctialis; assay: Phytotoxicity against Lemna aequinoctialis assessed as growth inhibition at 50 ug/ml after 7 days relative to control; assay type: functional; conditions: 168 h, read-out: GI
[9] = test system: Lemna aequinoctialis; assay: Phytotoxicity against Lemna aequinoctialis assessed as growth inhibition at 500 ug/ml after 7 days relative to control; assay type: functional; conditions: 168 h, read-out: GI
[10] = test system: Lemna aequinoctialis; assay: Phytotoxicity against Lemna aequinoctialis assessed as growth inhibition at 5 ug/ml after 7 days relative to control; assay type: functional; conditions: 168 h, read-out: GI
[11] = test system: Aspergillus flavus; assay: Growth inhibition of Aspergillus flavus at 200 ug/ml after 7 days; assay type: functional; conditions: 168 h
[12] = target: Urease (Canavalia ensiformis, UniProt P07374); assay: Inhibition of Canavalia ensiformis (jack bean) urease assessed as inhibition of ammonia production after 15 min by indophenol method
[13] = target: Urease (Canavalia ensiformis) (UniProt P07374); assay: Inhibition of Canavalia ensiformis (jack bean) urease assessed as inhibition of ammonia production at 500 uM after 15 min by indophenol method
[14] = species on record: Homo sapiens; assay: Inhibition of […] urease-mediated ammonia production at 100 uM after 15 min by indophenol method
[15] = target: Urease (Canavalia ensiformis) (UniProt P07374); assay: Inhibition of Canavalia ensiformis (jack bean) urease assessed as inhibition of ammonia production at 100 uM after 15 min by indophenol method
[16] = test system: Lemna aequinoctialis; assay: Phytotoxicity against Lemna aequinoctialis assessed as growth inhibition at 0.015 g/ml after 7 days relative to control; assay type: functional

Chain of Urease (Canavalia ensiformis) (P07374 whole entry, looked up): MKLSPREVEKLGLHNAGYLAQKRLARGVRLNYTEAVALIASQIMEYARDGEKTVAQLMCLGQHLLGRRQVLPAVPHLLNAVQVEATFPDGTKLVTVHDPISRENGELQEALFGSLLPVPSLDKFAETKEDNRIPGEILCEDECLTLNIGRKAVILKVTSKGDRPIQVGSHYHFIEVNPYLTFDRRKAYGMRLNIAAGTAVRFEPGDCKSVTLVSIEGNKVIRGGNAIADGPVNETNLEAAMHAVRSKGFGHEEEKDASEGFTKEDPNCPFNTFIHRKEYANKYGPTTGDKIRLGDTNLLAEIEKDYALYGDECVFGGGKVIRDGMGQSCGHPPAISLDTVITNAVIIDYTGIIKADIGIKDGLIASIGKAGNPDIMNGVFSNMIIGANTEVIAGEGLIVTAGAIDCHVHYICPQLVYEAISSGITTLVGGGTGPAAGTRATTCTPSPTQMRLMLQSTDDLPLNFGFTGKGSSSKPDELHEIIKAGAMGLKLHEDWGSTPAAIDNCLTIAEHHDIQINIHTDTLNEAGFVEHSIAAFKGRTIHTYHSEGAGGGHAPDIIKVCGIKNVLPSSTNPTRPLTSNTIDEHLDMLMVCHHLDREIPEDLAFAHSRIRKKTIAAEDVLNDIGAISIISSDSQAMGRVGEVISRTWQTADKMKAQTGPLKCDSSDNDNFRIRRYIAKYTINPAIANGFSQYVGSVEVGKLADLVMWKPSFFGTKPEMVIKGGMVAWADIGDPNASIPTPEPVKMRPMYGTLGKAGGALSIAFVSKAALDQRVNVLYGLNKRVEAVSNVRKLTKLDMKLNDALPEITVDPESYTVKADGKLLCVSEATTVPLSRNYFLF
Chain of Urease (P07374 whole entry): as the sequence (P07374 whole entry, looked up) above

SMILES | inhibition at 200 µg/mL [1] | inhibition at 200 µg/mL [2] | inhibition at 200 µg/mL [3] | inhibition [4] | LC50 at 24 h [5] | inhibition at 200 µg/mL [6] | inhibition at 200 µg/mL [7] | inhibition of growth at 50 µg/mL [8] | inhibition of growth at 500 µg/mL [9] | inhibition of growth at 5 µg/mL [10] | inhibition at 200 µg/mL [11] | IC50 [12] | inhibition [13] | IC50 ([12]; read-out: IC50) | inhibition [14] | inhibition [15] | growth inhibition (GI) [16]
O=C1Nc2ccc(F)cc2/C1=N/NC(=S)Nc1ccc(Br)cc1F | 20% | 10% | 0% | 21.9% | > 49.1 µM | 0% | 0% | 25% | 30% | 10% | 0% | Not Active |  |  |  |  | 
O=C1Nc2ccc(F)cc2/C1=N/NC(=S)Nc1ccc(F)cc1F | 35% | 15% | 0% |  | > 57.1 µM | 0% | 0% | 20% | 30% | 10% | 40% | Not Active | 22.1% |  |  |  | 
O=C1Nc2ccc(F)cc2/C1=N/NC(=S)Nc1cccc(F)c1 | 25% | 15% | 0% | 79.8% | 121 µM | 0% | 0% | 25% | 30% | 15% | 10% |  |  | 45.3 µM |  |  | 
O=C1Nc2ccccc2/C1=N/NC(=S)Nc1ccccc1 |  |  |  |  | > 338 µM |  |  | 25% | 40% | 15% |  |  |  |  | inactive |  | 
O=C1Nc2ccc(F)cc2/C1=N/NC(=S)Nc1cccc(C(F)(F)F)c1 | 30% | 25% | 0% |  | > 52.4 µM | 0% | 0% | 10% | 30% | 0% | 30% |  | 92.6% | 59.9 µM |  |  | 
O=C1Nc2ccc(F)cc2/C1=N/NC(=S)Nc1ccccc1 | 20% | 0% | 0% |  | 68.9 µM | 0% | 0% | 15% | 70% | 10% | 0% |  | 53% | 343 µM |  |  | 
NC(N)=S |  |  |  |  |  |  |  |  |  |  |  |  | 99% |  |  |  | 
O=C1Nc2ccc(F)cc2/C1=N/NC(=S)Nc1ccc(OC(F)(F)F)cc1 | 30% | 0% | 0% |  | > 50.3 µM | 0% | 0% | 20% | 35% | 10% | 10% | Not Active | 18.9% |  |  |  | 
O=C1Nc2ccc(F)cc2/C1=N/NC(=S)Nc1ccc(C(F)(F)F)cc1 | 25% | 5% | 0% | 53.4% | 176 µM | 0% | 0% | 15% | 25% | 10% | 20% |  |  | 90.4 µM |  |  | 
O=C1Nc2ccc(F)cc2/C1=N/NC(=S)Nc1c(F)cccc1F | 40% | 0% | 0% |  | 115 µM | 0% | 0% | 10% | 30% | 0% | 40% |  | 72.5% | 47.3 µM |  |  | 
O=C1Nc2ccccc2/C1=N/NC(=S)Nc1cccc(C(F)(F)F)c1 |  |  |  |  |  |  |  |  |  |  |  |  |  | 20.6 µM |  | 78.2% | 
O=C1Nc2ccccc2/C1=N/NC(=S)Nc1c(F)cccc1F |  |  |  |  |  |  |  |  |  |  |  |  |  | 33.1 µM |  | 92% | 
O=C1Nc2ccccc2/C1=N/NC(=S)Nc1ccc(C(F)(F)F)cc1 |  |  |  |  |  |  |  |  |  |  |  |  |  | 50.6 µM |  | 44.6% | 
O=C1Nc2ccccc2/C1=N/NC(=S)Nc1ccccc1F |  |  |  |  |  |  |  |  |  |  |  |  |  | 20.6 µM |  | 84.9% | 
O=C1Nc2ccccc2/C1=N/NC(=S)Nc1cccc(F)c1 |  |  |  |  |  |  |  |  |  |  |  |  |  | 50.6 µM |  | 57.3% | 
C[n+]1ccc(-c2cc[n+](C)cc2)cc1 |  |  |  |  |  |  |  |  |  |  |  |  |  |  |  |  | 100%
O=C1Nc2ccc(F)cc2/C1=N/NC(=S)Nc1ccc(F)cc1 | 15% | 10% | 0% |  | 97.9 µM | 0% | 0% | 25% | 35% | 10% | 0% | Not Active | 45.6% |  |  |  | 
O=C1Nc2ccc(F)cc2/C1=N/NC(=S)Nc1ccccc1F | 30% | 20% | 0% |  | 279 µM | 0% | 0% | 25% | 35% | 20% | 0% |  | 94.6% | 37.7 µM |  |  | 
O=C1Nc2ccc(F)cc2/C1=N/NC(=S)Nc1ccccc1C(F)(F)F | 20% | 0% | 0% | 77.3% | > 52.4 µM | 0% | 0% | 10% | 25% | 5% | 15% |  |  | 50.5 µM |  |  | 
O=C1Nc2ccccc2/C1=N/NC(=S)Nc1ccc(OC(F)(F)F)cc1 |  |  |  |  |  |  |  |  |  |  |  |  |  | 20.6 µM |  | 49.6% | 
O=C1Nc2ccccc2/C1=N/NC(=S)Nc1ccc(F)cc1F |  |  |  |  |  |  |  |  |  |  |  |  |  | 47.6 µM |  | 71.9% | 
O=C1Nc2ccccc2/C1=N/NC(=S)Nc1ccccc1C(F)(F)F |  |  |  |  |  |  |  |  |  |  |  |  |  | 33.1 µM |  | 63.1% | 
O=C1Nc2ccc(F)cc2/C1=N/NC(=S)Nc1cc(F)cc(F)c1 | 40% | 0% | 0% |  | 107 µM | 0% | 0% | 10% | 15% | 0% | 0% |  | 80.2% | 151 µM |  |  | 
O=C1Nc2ccccc2/C1=N/NC(=S)Nc1cc(F)cc(F)c1 |  |  |  |  |  |  |  |  |  |  |  |  |  |  |  | 38.8% | 
